Patent US8138158B2, “Compositions and methods for therapy for diseases characterized by defective chloride transport” (Children's Hospital & Research Center at Oakland, priority 1997, dated 2012)

Experiments:
[1] = tested on: nasal potential difference; experiment: Nasal potential difference measurement in a human volunteer (Knowles protocol); type: in vivo; conditions: L-ascorbic acid 100 μM in luminal perfusate; amiloride, chloride-free solution
Experimental: In vivo, chloride secretion may be assessed using measurements of nasal potential differences in a mammal, such as a human or a mouse. […] The nasal potential difference is measured as the electrical potential measured on the nasal mucosa with respect to a skin electrode placed on a slightly scratched skin part (see Alton et al., Eur. Respir. J. 3:922-926, 1990) or with respect to a subcutaneous needle (see Knowles et al., Hum. Gene Therapy 6:445-455, 1995). Nasal potential difference is evaluated in the presence and absence of test compound, and those compounds that results in a statistically significant increase in nasal potential difference stimulate chloride transport.
The effect of quercetin on nasal potential difference (PD) measurement in a healthy human volunteer was measured as described by Knowles et al., Hum. Gene Therapy 6:445-455, 1995.
Nasal potential difference measurement was performed on a human volunteer according to a protocol by Knowles et al., Hum. Gene Therapy 6:445-455, 1995. Addition of L-ascorbic acid (100 μM) to the luminal perfusate in the nose (in the presence of amiloride (blocks Na currents) and in chloride-free solution) hyperpolarized nasal potential difference (PD) by 6.3 mV (FIG. 17). […] Stimulation was reversed by washing out drugs with NaCl Ringer solution.

[2] = tested on: intracellular cAMP levels; experiment: Cyclic AMP measurements in Calu-3 cells (competitive immunoassay); type: cell-based, human
Experimental: Cyclic AMP measurements. […] Cellular cAMP levels were measured in non-acetylated samples using a competitive immunoassay for cAMP (R&D systems, Minneapolis, Minn.). The regulatory role of vitamin C on Cl ion channel activity was studied in Calu-3 airway cells which express large amounts of native CFTR as their major Cl conductance ([…]., Widdicombe, J. H. & Wine, J. J. (1994) Am. J. Physiol. 266, […]-[…]). […] Details of the single channel recording are illustrated in FIG. 20C. […] At negative potentials no channel openings were resolved indicating Cl-over-gluconate selectivity. Cyclic AMP is the major intracellular messenger for the activation of CFTR. We tested the possibility that L-ascorbic acid increased intracellular cAMP levels [cAMP], by either turning on cAMP production or preventing cAMP degradation. FIG. 20E compares whole cell cAMP levels of Calu-3 cells challenged with either increasing concentrations of L-ascorbic acid or the cAMP agonist forskolin.

ΔF508 CFTR = target: T1, ΔF508 CFTR (Mus musculus, UniProt P26361, DEL508-508); experiment: Rectal potential difference (RPD) in mice homozygous for ΔF508 CFTR; type: in vivo
T1 construct: from tissue; host or cells: rectal mucosa of living ΔF508 CF mice (C57Bl6/J), TMAO-treated or water-injected
T1 sequence (P26361 with tags, fused parts or gaps DEL508-508): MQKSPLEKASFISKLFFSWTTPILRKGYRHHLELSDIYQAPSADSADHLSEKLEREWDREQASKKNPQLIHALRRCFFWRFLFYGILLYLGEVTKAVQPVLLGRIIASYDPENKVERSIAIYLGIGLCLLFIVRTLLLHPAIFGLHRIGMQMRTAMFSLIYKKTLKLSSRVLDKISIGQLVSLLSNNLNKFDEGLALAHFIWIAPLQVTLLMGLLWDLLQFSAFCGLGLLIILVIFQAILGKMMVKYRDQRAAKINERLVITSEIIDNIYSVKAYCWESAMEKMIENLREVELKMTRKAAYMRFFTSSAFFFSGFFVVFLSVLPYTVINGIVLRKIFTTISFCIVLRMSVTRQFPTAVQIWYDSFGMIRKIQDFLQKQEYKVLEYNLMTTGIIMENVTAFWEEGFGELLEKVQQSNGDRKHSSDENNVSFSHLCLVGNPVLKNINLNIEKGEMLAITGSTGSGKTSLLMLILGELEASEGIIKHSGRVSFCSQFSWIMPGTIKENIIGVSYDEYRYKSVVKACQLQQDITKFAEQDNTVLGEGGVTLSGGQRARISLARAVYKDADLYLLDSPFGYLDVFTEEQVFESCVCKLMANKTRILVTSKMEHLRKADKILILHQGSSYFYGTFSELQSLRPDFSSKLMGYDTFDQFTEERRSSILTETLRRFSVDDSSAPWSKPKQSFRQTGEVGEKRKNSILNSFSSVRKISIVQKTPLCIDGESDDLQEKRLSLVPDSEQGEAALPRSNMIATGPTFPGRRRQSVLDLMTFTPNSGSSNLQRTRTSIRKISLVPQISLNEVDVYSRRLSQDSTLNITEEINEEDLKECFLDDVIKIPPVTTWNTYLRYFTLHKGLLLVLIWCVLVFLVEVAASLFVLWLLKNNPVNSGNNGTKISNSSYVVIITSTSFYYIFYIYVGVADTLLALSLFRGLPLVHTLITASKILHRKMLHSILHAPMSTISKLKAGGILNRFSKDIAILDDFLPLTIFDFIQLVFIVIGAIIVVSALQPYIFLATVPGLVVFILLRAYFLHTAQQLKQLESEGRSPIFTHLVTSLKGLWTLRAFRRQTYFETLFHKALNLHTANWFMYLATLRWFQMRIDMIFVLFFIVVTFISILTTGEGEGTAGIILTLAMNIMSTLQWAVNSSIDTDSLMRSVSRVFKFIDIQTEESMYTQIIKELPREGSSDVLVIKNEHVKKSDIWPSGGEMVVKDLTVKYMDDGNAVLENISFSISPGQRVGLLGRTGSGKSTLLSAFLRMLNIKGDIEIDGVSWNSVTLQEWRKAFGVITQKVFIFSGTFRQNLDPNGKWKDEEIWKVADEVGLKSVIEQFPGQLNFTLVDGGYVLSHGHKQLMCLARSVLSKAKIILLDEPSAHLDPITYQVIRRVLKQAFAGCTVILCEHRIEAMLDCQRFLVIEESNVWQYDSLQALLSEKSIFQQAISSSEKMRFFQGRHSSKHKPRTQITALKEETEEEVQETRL
Excerpt: CF mice and rectal potential difference (RPD) measurements. Gene-targeted mice homozygous for the ΔF508 mutation (C57Bl6/J) received Golytely® (Braintree Laboratories, Inc.), a diarrhetic supplement, in the drinking water to increase their lifespan (Clarke, L. L., Gawenis, L. R., Franklin, C. L. & Harline, M. C. (1996) Lab. Anim. Sci. 46, 612-8). To correct the maturation defect of ΔF508 CFTR we used the chemical chaperone trimethylamine oxide (TMAO) (Brown, C. R., Hong-Brown, L. Q., Biwersi, J., Verkman, A. S. & Welch, W. J. (1996) Cell Stress Chaperones 1, 117-25). CF mice were injected with 4 mg/g TMAO from a 4 M stock solution every 8 hours for 24 hours, which is a regimen to partially correct the ΔF508 defect in CF mice (Fischer, H., Barbry, P., Illek, B., Sartori, C., Fukuda, N. & Matthay, M. A. (2001) Am. J. Physiol. 281, L52-L57). Controls were water-injected. The RPD assay was performed on mice that were anesthetized with 0.1 mg/g body weight ketamine and 0.01 mg/g body weight azepromazine. RPD was sensed with a 1 M NaCl agar bridge inserted ˜1 cm into the rectum vs. a subcutaneous needle filled with 1 M NaCl. Measurements were performed in Cl free solution containing 100 μm amiloride and 5 mM Ba(OH)2 to isolate the Cl-selective RPD.
In this Example, it was determined whether L-ascorbic acid affected the functional activation of ΔF508 CFTR in a CF-affected organism in vivo. Using gene-targeted mice homozygous for the ΔF508 mutation it was shown previously that the osmolyte trimethylamine oxide (TMAO) effectively supported ΔF508 CFTR trafficking in vivo (Fischer, H., Barbry, P., Illek, B., Sartori, C., Fukuda, N. & Matthay, M. A. (2001) Am. J. Physiol. 281, L52-L57). Accordingly, the effect of L-ascorbic acid was tested in homozygous ΔF508 CF mice treated with TMAO by using the RPD assay as a functional end point measure for mutant ΔF508-CFTR function. FIG. 24A illustrates that TMAO-treated CF mice manifested a detectable response to a maximal dose of L-ascorbic acid (1 mM) or its epimer D-isoascorbic acid (300 μM) and RPD hyperpolarized on average by −3.2±0.8 mV (n=4) and −3.6±1.8 mV (n=3), respectively (FIG. 24B).

SMILES: O=C1O[C@H](C(O)CO)C(O)=C1O (stereo partly drawn) [L-ascorbic acid, L-xyloascorbic acid]
- hyperpolarized nasal potential difference (PD) by [1]: 6.3 mV
- cAMP level stimulated by 100 nM forskolin ([2]; 300 μM L-ascorbate + 100 nM forskolin): did not alter the elevated cAMP level
- resting intracellular cAMP level ([2]; L-ascorbate from 100 μM to 10 mM, 15 min): did not result in a detectable increase
- RPD hyperpolarized on average by (ΔF508 CFTR; CF mice treated with 4 mg/g TMAO for 24 hours, L-ascorbic acid 1 mM, n=4): −3.2±0.8 mV
- ΔRPD (ΔF508 CFTR; water-injected control CF mice, L-ascorbic acid or D-isoascorbic acid, n=9): −1.1±0.4 mV
